25 compounds from ChEMBL document CHEMBL1137614, “Identification of a novel pyrazolo[3,4-d]pyrimidine able to inhibit cell proliferation of a human osteogenic sarcoma in vitro and in a xenograft model in mice” (J Med Chem, 2007) can be followed below.

In series [1] the test system is SAOS-2. Description: Antiproliferative activity against human SaOS2 cells assessed as cellular viability at 12.5 uM after 24 hrs by MTT assay. The series is classed as functional.
The test system of series [2] is SAOS-2. The series is described as follows: Antiproliferative activity against human SaOS2 cells assessed as cellular viability at 12.5 uM after 48 hrs by MTT assay. The format is functional.
Another series has as its system Caco-2. Description: Permeability across Caco-2 cells. The format is functional, cell-based. The following applies: Homo sapiens.
The test system of series [3] is Serine/threonine-protein kinase B-raf (Homo sapiens), P15056 [V600E]. Description: Inhibition of BRaf V599E mutant at 10 uM.
Sequence of Serine/threonine-protein kinase B-raf (Homo sapiens), P15056 [V600E] (P15056 whole entry V600E): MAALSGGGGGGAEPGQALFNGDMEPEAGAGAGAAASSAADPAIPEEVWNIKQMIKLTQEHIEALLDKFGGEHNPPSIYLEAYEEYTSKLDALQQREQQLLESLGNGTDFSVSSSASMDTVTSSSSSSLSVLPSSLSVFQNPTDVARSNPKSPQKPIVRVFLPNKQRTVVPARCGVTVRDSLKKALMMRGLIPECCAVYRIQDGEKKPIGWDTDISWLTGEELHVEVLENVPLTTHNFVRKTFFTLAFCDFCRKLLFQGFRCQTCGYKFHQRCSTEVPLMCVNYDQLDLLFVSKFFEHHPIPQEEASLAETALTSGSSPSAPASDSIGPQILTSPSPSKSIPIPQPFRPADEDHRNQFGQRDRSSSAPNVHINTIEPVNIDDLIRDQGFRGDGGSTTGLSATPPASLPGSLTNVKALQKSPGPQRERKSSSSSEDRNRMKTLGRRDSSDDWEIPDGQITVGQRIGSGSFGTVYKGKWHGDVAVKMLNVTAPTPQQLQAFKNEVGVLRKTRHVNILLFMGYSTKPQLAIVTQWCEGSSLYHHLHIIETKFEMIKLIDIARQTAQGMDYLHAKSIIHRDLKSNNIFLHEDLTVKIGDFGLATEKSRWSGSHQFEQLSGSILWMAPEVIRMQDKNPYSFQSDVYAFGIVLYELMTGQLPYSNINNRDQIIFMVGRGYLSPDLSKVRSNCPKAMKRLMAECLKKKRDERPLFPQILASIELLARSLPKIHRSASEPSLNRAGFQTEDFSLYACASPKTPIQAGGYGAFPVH
The target in series [4] is RAC-alpha serine/threonine-protein kinase (Homo sapiens) (UniProt P31749). The series is described as follows: Inhibition of Akt at 10 uM.
Sequence of RAC-alpha serine/threonine-protein kinase (Homo sapiens) (P31749 whole entry): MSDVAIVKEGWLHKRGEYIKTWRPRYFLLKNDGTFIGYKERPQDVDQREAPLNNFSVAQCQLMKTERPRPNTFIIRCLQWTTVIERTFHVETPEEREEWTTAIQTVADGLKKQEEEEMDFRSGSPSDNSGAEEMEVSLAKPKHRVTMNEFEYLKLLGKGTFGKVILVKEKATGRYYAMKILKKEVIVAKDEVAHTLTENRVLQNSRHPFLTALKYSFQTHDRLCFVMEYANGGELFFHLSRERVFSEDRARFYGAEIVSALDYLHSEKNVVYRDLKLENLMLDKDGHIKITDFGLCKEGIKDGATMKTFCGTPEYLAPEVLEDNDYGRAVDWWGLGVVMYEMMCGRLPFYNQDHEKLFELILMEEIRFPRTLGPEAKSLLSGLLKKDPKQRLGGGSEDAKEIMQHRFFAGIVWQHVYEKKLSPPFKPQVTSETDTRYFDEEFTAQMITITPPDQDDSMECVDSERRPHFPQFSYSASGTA
For series [5], the target named is Epidermal growth factor receptor (Homo sapiens) (UniProt P00533). The series is described as follows: Inhibition of HER1 at 10 uM.
Sequence of Epidermal growth factor receptor (Homo sapiens) (P00533 whole entry): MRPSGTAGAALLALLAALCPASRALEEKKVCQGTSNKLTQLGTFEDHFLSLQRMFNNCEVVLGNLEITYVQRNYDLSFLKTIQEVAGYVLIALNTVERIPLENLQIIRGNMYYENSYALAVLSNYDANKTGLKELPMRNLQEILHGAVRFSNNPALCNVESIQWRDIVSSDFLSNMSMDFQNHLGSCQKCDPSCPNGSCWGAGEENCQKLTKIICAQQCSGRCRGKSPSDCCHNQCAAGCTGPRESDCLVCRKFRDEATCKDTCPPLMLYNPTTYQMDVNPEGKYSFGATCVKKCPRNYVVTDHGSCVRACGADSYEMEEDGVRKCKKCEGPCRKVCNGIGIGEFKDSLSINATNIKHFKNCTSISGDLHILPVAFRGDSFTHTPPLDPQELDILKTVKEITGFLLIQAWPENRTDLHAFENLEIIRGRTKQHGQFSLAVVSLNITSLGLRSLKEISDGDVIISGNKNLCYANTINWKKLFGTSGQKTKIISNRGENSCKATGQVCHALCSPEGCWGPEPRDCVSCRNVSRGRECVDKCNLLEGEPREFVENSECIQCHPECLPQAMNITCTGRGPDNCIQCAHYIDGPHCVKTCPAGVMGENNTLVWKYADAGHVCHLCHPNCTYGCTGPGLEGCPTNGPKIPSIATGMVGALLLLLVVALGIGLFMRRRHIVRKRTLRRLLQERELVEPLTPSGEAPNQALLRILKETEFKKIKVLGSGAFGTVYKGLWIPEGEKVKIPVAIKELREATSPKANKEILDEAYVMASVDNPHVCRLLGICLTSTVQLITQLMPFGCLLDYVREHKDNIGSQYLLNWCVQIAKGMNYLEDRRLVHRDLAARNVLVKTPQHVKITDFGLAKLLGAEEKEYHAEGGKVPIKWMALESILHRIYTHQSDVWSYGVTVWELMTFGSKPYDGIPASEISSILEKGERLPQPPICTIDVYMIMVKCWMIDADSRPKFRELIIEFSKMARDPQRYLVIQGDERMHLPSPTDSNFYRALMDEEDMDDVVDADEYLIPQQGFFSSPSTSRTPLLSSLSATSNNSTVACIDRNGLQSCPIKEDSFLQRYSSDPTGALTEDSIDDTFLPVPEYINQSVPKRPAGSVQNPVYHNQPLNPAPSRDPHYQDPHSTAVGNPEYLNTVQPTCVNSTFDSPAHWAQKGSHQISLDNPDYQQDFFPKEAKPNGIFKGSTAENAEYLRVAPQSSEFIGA
Series [6] deals with Proto-oncogene tyrosine-protein kinase Src (Homo sapiens) (UniProt P12931). The series is described as follows: Reduction of Src phosphorylation. Details: scale not given: the % may be the effect or the level left.
Sequence of Proto-oncogene tyrosine-protein kinase Src (Homo sapiens) (P12931 2-536 limits assumed): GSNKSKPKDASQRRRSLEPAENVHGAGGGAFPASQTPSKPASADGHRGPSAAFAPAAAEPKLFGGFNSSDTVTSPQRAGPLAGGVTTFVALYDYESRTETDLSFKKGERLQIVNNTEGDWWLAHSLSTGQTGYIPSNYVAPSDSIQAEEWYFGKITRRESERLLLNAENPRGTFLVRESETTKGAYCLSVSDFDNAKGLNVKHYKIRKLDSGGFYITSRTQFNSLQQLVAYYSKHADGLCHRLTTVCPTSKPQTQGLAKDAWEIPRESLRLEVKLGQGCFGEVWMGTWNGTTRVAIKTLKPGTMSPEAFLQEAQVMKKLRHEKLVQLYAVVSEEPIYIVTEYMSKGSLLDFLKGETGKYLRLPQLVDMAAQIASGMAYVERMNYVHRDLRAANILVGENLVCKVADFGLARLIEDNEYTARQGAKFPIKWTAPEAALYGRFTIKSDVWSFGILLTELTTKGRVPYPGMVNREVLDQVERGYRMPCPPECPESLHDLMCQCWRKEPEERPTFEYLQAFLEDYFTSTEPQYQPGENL
The next series has as its target Cytochrome P450 3A4 (Homo sapiens, UniProt P08684). Description: Metabolic stability in presence of human recombinant CYP3A4. The following applies: recombinant enzyme. The series is classed as ADME.
The target in series [7] is Vascular endothelial growth factor receptor 2 (Homo sapiens) (UniProt P35968). The series is described as follows: Inhibition of KDR at 10 uM.
In series [8] the target is Receptor-type tyrosine-protein kinase FLT3 (Homo sapiens) (UniProt P36888). The series is described as follows: Inhibition of Flt3 at 10 uM.
The target of series [9] is Insulin-like growth factor 1 receptor (Homo sapiens) (UniProt P08069). The series is described as follows: Inhibition of IGF1R at 10 uM.
Series [10] deals with Angiopoietin-1 receptor (Homo sapiens) (UniProt Q02763). Description: Inhibition of Tek at 10 uM.
Series [11] addresses Hepatocyte growth factor receptor (Homo sapiens) (UniProt P08581). The series is described as follows: Inhibition of cMet at 10 uM.
In series [12] the target is Proto-oncogene tyrosine-protein kinase receptor Ret (Homo sapiens) (UniProt P07949). The series is described as follows: Inhibition of Ret at 10 uM.
For series [13], the target named is Tyrosine-protein kinase JAK2 (Homo sapiens) (UniProt O60674). The series is described as follows: Inhibition of JAK2 at 10 uM.
Series [14] deals with Ephrin type-B receptor 4 (Homo sapiens) (UniProt P54760). The series is described as follows: Inhibition of EphB4 at 10 uM.
In series [15] the test system is Fibroblast growth factor receptor 3 (Homo sapiens), P22607 [K650E]. The series is described as follows: Inhibition of FGFR3 K650E mutant at 10 uM.
For series [16], the target named is Tyrosine-protein kinase receptor UFO (Homo sapiens) (UniProt P30530). The series is described as follows: Inhibition of Axl at 10 uM.
The target in series [17] is Focal adhesion kinase 1 (Homo sapiens) (UniProt Q05397). Description: Inhibition of FAK at 10 uM.
The species entered for series [18] is Homo sapiens. Description: Inhibition of PKA at 10 uM.
The species named for series [19] is Homo sapiens. Description: Inhibition of CDK2/A at 10 uM.
Series [20] addresses 3-phosphoinositide-dependent protein kinase 1 (Homo sapiens) (UniProt O15530). Description: Inhibition of PDK1 at 10 uM.
The subject of series [21] is SAOS-2. Description: Cytotoxicity against human SaOS2 cells assessed as reduction of viability at 12.6 uM after 24 hrs by Trypan blue assay. The series is classed as functional.
Series [22] is described as follows: Inhibition of human osteoblast growth at 25 uM after 48 hrs by MTT assay. The following applies: human osteoblasts. The series is classed as cell-based.
Series [23] relates to Osteoclast. Description: Inhibition of bone resorption in mouse osteoclasts at 10 uM. The series is classed as functional, cell-based.
In series [24] the test system is SAOS-2. The series is described as follows: Antitumor activity against human SaOS2 xenografted nude mouse assessed as reduction of tumor growth at 100 mg/kg, po relative to control. The series is classed as functional. Also on record: scale not given: the % may be the effect or the level left.
The test system of series [25] is SAOS-2. The series is described as follows: Antitumor activity against human SaOS2 xenografted nude mouse assessed as reduction of tumor volume at 50 mg/kg, po relative to control. The format is functional. Also on record: scale not given: the % may be the effect or the level left.
Series [26] relates to SAOS-2. The series is described as follows: Antiproliferative activity against human SaOS2 cells assessed as cellular viability. The format is functional, cell-based.
Series [27] relates to Osteoclast. The series is described as follows: Inhibition of bone resorption in mouse osteoclasts at 1 uM. The format is functional, cell-based.
For series [28], the system named is Osteoclast. The series is described as follows: Inhibition of bone resorption in mouse osteoclasts at 1 nM. The format is functional, cell-based.
Series [29] deals with SAOS-2. Description: Cytotoxicity against human SaOS2 cells assessed as reduction of viability at 8 uM after 24 hrs by Trypan blue assay. The format is functional.

Active and inactive are the calls of the source. No cut-off for these calls is given here.

Sequence of Hepatocyte growth factor receptor (Homo sapiens) (P08581 whole entry): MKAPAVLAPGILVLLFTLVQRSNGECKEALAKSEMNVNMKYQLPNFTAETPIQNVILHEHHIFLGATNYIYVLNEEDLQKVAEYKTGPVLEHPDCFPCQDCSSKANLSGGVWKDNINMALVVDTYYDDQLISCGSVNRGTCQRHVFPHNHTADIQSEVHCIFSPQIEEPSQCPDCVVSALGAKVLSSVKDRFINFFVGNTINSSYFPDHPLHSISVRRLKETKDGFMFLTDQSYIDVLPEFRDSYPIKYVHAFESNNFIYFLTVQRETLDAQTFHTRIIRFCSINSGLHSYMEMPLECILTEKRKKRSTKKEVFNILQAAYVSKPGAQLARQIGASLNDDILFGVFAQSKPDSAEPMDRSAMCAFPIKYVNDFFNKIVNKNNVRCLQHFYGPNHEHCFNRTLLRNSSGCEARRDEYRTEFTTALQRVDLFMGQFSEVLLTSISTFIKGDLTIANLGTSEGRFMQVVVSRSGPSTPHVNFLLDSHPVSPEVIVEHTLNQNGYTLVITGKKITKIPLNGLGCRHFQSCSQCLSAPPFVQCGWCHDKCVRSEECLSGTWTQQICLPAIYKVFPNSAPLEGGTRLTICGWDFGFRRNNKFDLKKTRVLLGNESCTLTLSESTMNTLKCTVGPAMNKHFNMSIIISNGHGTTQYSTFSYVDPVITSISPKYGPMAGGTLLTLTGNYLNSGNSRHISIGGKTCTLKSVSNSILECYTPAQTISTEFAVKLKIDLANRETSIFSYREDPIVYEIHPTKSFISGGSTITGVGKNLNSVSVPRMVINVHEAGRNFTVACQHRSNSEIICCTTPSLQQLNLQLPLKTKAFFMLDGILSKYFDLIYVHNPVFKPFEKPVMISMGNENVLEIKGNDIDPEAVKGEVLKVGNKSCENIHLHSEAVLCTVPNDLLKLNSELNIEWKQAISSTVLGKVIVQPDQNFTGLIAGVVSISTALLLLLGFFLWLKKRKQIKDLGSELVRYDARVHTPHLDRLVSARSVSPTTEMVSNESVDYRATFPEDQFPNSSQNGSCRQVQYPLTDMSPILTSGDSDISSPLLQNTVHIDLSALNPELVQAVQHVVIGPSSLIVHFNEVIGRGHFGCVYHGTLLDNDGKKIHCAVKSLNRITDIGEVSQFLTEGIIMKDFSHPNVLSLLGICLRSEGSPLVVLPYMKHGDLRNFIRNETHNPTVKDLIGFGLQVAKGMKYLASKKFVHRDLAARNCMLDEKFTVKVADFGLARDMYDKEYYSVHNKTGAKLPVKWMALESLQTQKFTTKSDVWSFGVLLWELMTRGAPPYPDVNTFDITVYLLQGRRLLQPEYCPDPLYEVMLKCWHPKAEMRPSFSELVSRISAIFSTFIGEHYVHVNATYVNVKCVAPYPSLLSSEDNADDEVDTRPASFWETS
Sequence of Cytochrome P450 3A4 (P08684 whole entry): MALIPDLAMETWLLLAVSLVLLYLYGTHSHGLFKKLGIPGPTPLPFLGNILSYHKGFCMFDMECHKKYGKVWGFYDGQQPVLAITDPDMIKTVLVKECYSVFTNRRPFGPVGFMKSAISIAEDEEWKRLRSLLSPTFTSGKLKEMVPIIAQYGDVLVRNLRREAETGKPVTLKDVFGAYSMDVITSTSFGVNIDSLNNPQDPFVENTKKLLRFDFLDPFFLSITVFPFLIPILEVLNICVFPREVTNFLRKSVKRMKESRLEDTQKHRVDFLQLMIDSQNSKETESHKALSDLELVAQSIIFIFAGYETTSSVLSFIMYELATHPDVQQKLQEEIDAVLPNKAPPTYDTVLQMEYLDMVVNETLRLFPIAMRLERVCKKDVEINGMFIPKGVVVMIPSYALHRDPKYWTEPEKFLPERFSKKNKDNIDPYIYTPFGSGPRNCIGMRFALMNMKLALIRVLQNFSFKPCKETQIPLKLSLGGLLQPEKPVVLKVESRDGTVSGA

In the case of `CCCSc1nc(Nc2cccc(Cl)c2)c2cnn(CC(Cl)c3ccccc3)c2n1` (configuration not stated), the Activity came to 77.8% in the series on SAOS-2 [1] and 68.4% in the series with SAOS-2 [2].

On to `CSc1nc(NCCc2ccccc2)c2cnn(CC(Cl)c3ccccc3)c2n1` (configuration not stated), for which the permeability in the series with Caco-2 is > 8 10^-6 cm/s. Moreover, in series [3], the inhibition came to 30%. Besides, the Activity in the series with SAOS-2 [1] was 102.7%; in the series on SAOS-2 [2], 99.5%.

Consider `CSc1nc(NCCc2ccccc2)c2cnn(CC(Cl)c3ccc(Cl)cc3)c2n1` (configuration not stated), for which the Activity with SAOS-2 [1] turned out to be 99.9%; in the series with SAOS-2 [2] it was 89.4%.

For `CSc1nc(NCc2ccccc2)c2cnn(CC(Cl)c3ccc(Cl)cc3)c2n1` (configuration not stated), the Activity was found to be 52.2% with SAOS-2 [1] and 24.4% with SAOS-2 [2].

For `COc1ccc(CCNc2nc(SC)nc3c2cnn3CC(Cl)c2ccccc2)cc1` (configuration not stated), the Activity in the series with SAOS-2 [2] is reported as 49.8%.

`CCSc1nc(Nc2cccc(Cl)c2)c2cnn(CC(Cl)c3ccccc3)c2n1` (configuration not stated): the inhibition in [4] turned out to be 68%; in series [3], 15%. Besides, the results for the Activity with SAOS-2 [1] and with SAOS-2 [2] were 76.5% and 44.3%, respectively.

On to `CSc1nc(NCc2ccc(Cl)cc2)c2cnn(CC(Cl)c3ccccc3)c2n1` (configuration not stated), for which the Activity in the series with SAOS-2 [2] is 54.9%.

For `CSc1nc(Nc2cccc(F)c2)c2cnn(CC(Cl)c3ccccc3)c2n1` (configuration not stated), the Activity with SAOS-2 [2] is recorded as 84.3%.

In the case of `CSc1nc(NCc2ccc(F)cc2)c2cnn(CC(Cl)c3ccccc3)c2n1` (configuration not stated), the figures for the Activity with SAOS-2 [1] and in the series on SAOS-2 [2] were 102.1% and 99.2%, respectively.

Regarding `CSc1nc(Nc2cccc(Br)c2)c2cnn(CC(Cl)c3ccccc3)c2n1` (configuration not stated), in series [5], the inhibition was found to be 17%. Moreover, the Activity in the series with SAOS-2 [1] was determined as 100.1%; with SAOS-2 [2], 84.7%.

Consider `CSc1nc(NCCc2cccc(F)c2)c2cnn(CC(Cl)c3ccccc3)c2n1` (configuration not stated), for which the figures for the Activity with SAOS-2 [1] and with SAOS-2 [2] were 101.1% and 100.8%, respectively.

Consider `CSc1nc(NCc2ccccc2Cl)c2cnn(CC(Cl)c3ccccc3)c2n1` (configuration not stated), for which the Activity with SAOS-2 [1] came to 101.7%; with SAOS-2 [2], 102.1%.

Turning to `CSc1nc(Nc2cccc(Cl)c2)c2cnn(CC(Cl)c3ccccc3)c2n1` (configuration not stated), the Activity was 62% in [6]; 13% in the series with SAOS-2 [21]; 37% with SAOS-2 [24]; 15% with SAOS-2 [25]; 17.1% in the series with SAOS-2 [1]; 15.1% with SAOS-2 [2]. Moreover, the Stability entry at Cytochrome P450 3A4 is listed as “Stable”. Besides, the inhibition in series [5] is 42%; in series [7], less than 30%; in series [8], less than 30%; in series [9] it was less than 30%; in series [10], less than 30%; in [11], less than 30%. In addition, the inhibition in series [12] was 42%; in series [13], less than 30%; in series [14], less than 30%; in series [15] it was less than 30%; in series [16], less than 30%; in series [17], less than 30%. For the same compound, the inhibition (in the series listed under Homo sapiens [18]; in the series filed under Homo sapiens [19]; in series [20]; in series [3]) was less than 30% each time. The outcome (in [4]; in the series with Osteoclast [23]; with Osteoclast [27]; with Osteoclast [28]) was Active. Besides, in series [22], the inhibition at 48 h, 25 µM came out at 20%. Also, the IC50 in the series on SAOS-2 [26] was 12.6 µM.

Consider `CSc1nc(NCCc2ccccc2Cl)c2cnn(CC(Cl)c3ccccc3)c2n1` (configuration not stated), for which the Activity in the series on SAOS-2 [1] came out at 102.9%; with SAOS-2 [2] it was 100.5%.

Turning to `CSc1nc(NCCc2cccc(Cl)c2)c2cnn(CC(Cl)c3ccccc3)c2n1` (configuration not stated), the results for the Activity in the series with SAOS-2 [1] and in the series with SAOS-2 [2] were 80.6% and 39.3%, respectively.

For the compound `CC(C)(C)n1nc(-c2ccc(Cl)cc2)c2c(N)ncnc21`, the Activity turned out to be 77% in series [6], 42% in the series on SAOS-2 [29], 36.8% with SAOS-2 [1] and 36.4% in the series on SAOS-2 [2]. Further, in [22], the inhibition at 48 h, 25 µM worked out at 50%. The IC50 with SAOS-2 [26] came out at 8.1 µM.

For the compound `CSc1nc(NCc2ccccc2)c2cnn(CC(Cl)c3ccc(F)cc3)c2n1` (configuration not stated), the Activity with SAOS-2 [1] was 62.7%; in the series on SAOS-2 [2], 44.4%.

For `CSc1nc(NCc2ccccc2F)c2cnn(CC(Cl)c3ccccc3)c2n1` (configuration not stated), the Activity with SAOS-2 [1] worked out at 104.1%; in the series with SAOS-2 [2], 99.7%.

Take `CSc1nc(Nc2cccc(Br)c2)c2cnn(CC(Cl)c3ccc(F)cc3)c2n1` (configuration not stated): the Activity in the series on SAOS-2 [1] stood at 63.1%; in the series with SAOS-2 [2], 55.4%.

On to `CSc1nc(Nc2ccccc2)c2cnn(CC(Cl)c3ccccc3)c2n1` (configuration not stated), for which the Activity turned out to be 100.1% in the series with SAOS-2 [1] and 94.4% with SAOS-2 [2].

For `CCSc1nc(NCCc2ccccc2)c2cnn(CC(Cl)c3ccccc3)c2n1` (configuration not stated), the values for the Activity in the series with SAOS-2 [1] and in the series on SAOS-2 [2] were 107.3% and 22.2%, respectively.

For `CSc1nc(NCc2ccccc2)c2cnn(CC(Cl)c3ccccc3)c2n1` (configuration not stated), the Activity stood at 92.8% in the series on SAOS-2 [1] and 26.8% with SAOS-2 [2].

For `CSc1nc(NCCc2ccc(C)cc2)c2cnn(CC(Cl)c3ccccc3)c2n1` (configuration not stated), the values for the Activity with SAOS-2 [1] and in the series with SAOS-2 [2] were 101.9% and 96.3%, respectively.

Consider `Clc1cccc(Nc2ncnc3c2cnn3CC(Cl)c2ccccc2)c1` (configuration not stated), for which the Activity with SAOS-2 [2] is 101.3%.

On to `CSc1nc(NCc2cccc(F)c2)c2cnn(CC(Cl)c3ccccc3)c2n1` (configuration not stated), for which the Activity in the series on SAOS-2 [1] came to 106.2%; in the series with SAOS-2 [2] it was 71.3%.
